PMC9706033 (Journal of Microbiology and Biotechnology, 2021)
Where two headings read alike, the source gives them in different places. Values belong to the compound of their own block, whether it stands above or below them.

How the values were obtained:
[1] = Water solubility determination (UPLC of supernatant); assay type: physicochemical
Method: Each sample was centrifuged at 16,000 g for 30 min. Subsequently, the supernatant of each sample was filtered, and the concentration of the compound in the supernatant as a water-soluble component was estimated by UPLC analysis.

[2] = DPPH free-radical scavenging assay
Method: DPPH free-radical scavenging capability and ferric reducing antioxidant power (FRAP) assay results were evaluated as described previously by Moon et al.. Hydroxy radical-scavenging assay was measured as described by Su et al.. Vitamin C was used as a positive control. Each assay was measured from 1 min to 30 h. The DPPH radical-scavenging activity was calculated as follows: DPPH radical-scavenging activity (%) = (1-Asample/Ablank) × 100, where Asample is the absorbance in the presence of the sample, and Ablank is the absorbance of the blank. Hydroxy radical-scavenging activity was calculated in accordance with the following formula: Hydroxy radical scavenging activity (%) = (Asample-Acontrol)/(Ablank-Acontrol) × 100, where Asample is the absorbance in the presence of the sample, Acontrol is the absorbance of the blank with H2O2, and Ablank is the absorbance of the blank without H2O2.

tyrosinase [3] = system: tyrosinase; design: method as in PMID 7765966; conditions: tyrosinase of B16 mouse melanoma; cited from earlier work
B16F10 melanoma cells [4] = test: Cellular melanin content in α-MSH-stimulated B16F10 melanoma cells; assay type: cell-based; conditions: 72 h
Method: Cellular melanin content was determined by the method of Park et al. with minor modifications. The cells (5 × 10^4 cells/well) were seeded into 6-well plates and cultured for 24 h. […] Then, the cells were washed with PBS and lysed with lysis buffer, and the supernatant was removed by centrifugation at 16,000 g for 15 min at 4°C. The protein concentration of the supernatant was determined by the Bradford method. The pellet was dissolved in 1 M NaOH and measured at 405 nm using a microplate reader.

tyrosinase [5] = target: T1, tyrosinase (Mus musculus, UniProt P11344); test: Cellular tyrosinase activity in α-MSH-stimulated B16F10 melanoma cells; assay type: cell-based; conditions: 48 h; for inhibition at 300 µM: B16-F10
T1 construct: endogenous in cells; host or cells: B16F10 melanoma cells, α-MSH-stimulated
T1 sequence (P11344 19-533): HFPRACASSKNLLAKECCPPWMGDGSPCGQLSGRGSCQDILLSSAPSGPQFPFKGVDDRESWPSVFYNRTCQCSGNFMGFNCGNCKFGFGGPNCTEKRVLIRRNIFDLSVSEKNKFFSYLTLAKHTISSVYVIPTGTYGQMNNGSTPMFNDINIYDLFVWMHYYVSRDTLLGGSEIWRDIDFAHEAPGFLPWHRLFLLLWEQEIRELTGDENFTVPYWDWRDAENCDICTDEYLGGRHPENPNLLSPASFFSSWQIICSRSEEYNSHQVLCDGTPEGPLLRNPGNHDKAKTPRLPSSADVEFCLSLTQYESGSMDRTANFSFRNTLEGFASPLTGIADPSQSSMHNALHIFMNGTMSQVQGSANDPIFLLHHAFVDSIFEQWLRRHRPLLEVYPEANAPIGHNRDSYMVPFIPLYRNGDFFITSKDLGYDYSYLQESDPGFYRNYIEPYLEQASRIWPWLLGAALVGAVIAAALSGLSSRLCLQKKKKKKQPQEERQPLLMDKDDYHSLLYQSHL

B16F10 melanoma cells [6] = assay type: cell-based; conditions: mouse, 24 h
Method: Cell culture and cell viability assay. B16F10 melanoma cells were maintained in DMEM supplemented with 10% FBS, 100 U/ml penicillin, and 100 μg/ml streptomycin. The cells were cultured at 37°C under 5% CO2 in a humidified culture chamber. Cell viability was determined by 3-(4,5-dimethythiazol-2-yl)-2,5-diphenyl tetrazolium bromide (MTT) assay. The cells (6 × 10^3 cells/well) were seeded into 96-well plates and cultured for 24 h. […] After 24 h, the cells were washed with PBS, MTT reagent (0.5 mg/ml) was added to each well, and the cells were incubated at 37°C for 1 h. The supernatant in each well was discarded for the treatment with DMSO, which was used to dissolve the formazan crystals formed from viable cells. After the DMSO treatment, the absorbance of each well was measured at 595 nm using a microplate reader (Epoch, Biotek, USA).

[7] = design: method as in PMID 9599270; conditions: read-out: Antioxidant activity IC50; cited from earlier work
[8] = Stability against oxidative degradation in buffer solutions and cell culture medium; assay type: physicochemical; conditions: 37°C, up to 72 h, read-out: Half-life, t1/2 (converted)
[9] = Hydroxyl radical scavenging assay
polyphenol oxidases = conditions: cited from earlier work
B16F10 cells = test: Cellular uptake assay (UPLC of medium and cell lysates); assay type: cell-based; conditions: after 24 h incubation with B16F10 cells; resveratrol 20 μM, glucosides 100 μM
Method: The cellular uptake assay was conducted following the method described by Moon et al. with minor modification. The B16F10 cells (2 × 10^5 cells/well) were seeded into 6-well plates. […] After 24 h of incubation, the medium was removed, and the cells were washed with PBS and then scraped off. […] The lysate was centrifuged at 16,000 g for 10 min and filtered by a 0.2 μm syringe filter. The cell extracts were analyzed by UPLC.

[10] = humans; cited from earlier work
[11] = distilled water, sonicated 1 h at room temperature
[12] = 100 μM, α-MSH-stimulated B16F10
[13] = Buffer pH 2.0 (hydrochloric acid)
[14] = DMEM cell culture medium without FBS, DMEM (without FBS)
[15] = phosphate-buffered saline, PBS (pH 7.4)
[16] = simulated body fluid, SBF (pH 7.4)

SMILES: OC[C@H]1O[C@H](Oc2ccc(C=Cc3cc(O)cc(O)c3)cc2)[C@H](O)[C@@H](O)[C@@H]1O [R1, resveratrol-4′-O-α-glucoside]
Water solubility [1, 11]: 515 µg/mL
Water solubility (molar) [1, 11]: 1319 µM

SMILES: O=C1O[C@H]([C@@H](O)CO)C(O)=C1O [vitamin C]
Time to scavenge the DPPH radical [2]: ≤ 30 min

SMILES: OC[C@H]1O[C@H](Oc2ccc(O)cc2)[C@H](O)[C@@H](O)[C@@H]1O [α-arbutin]
Inhibitory activity, times as strong as that of β-arbutin (tyrosinase [3]): 10 times

SMILES: OC[C@H]1O[C@@H](Oc2cc(O)cc(/C=C/c3ccc(O)cc3)c2)[C@H](O)[C@@H](O)[C@@H]1O [β-piceid]
Suppression of melanin synthesis (B16F10 melanoma cells [4]; 100 μM): 36.5%
Suppression of melanin synthesis (B16F10 melanoma cells [4]; 300 μM): 46.3%
Suppression of tyrosinase activity (tyrosinase [5]; [12]): 19.2%
inhibition at 300 µM (tyrosinase [5]; α-MSH-stimulated B16F10): 29.7%
Concentration affecting proliferation of B16F10 cells (B16F10 melanoma cells [6]): above 100 μM
EC50 ([2]; at 30 min): 441 µM
EC50 ([2]; at 5 h): 699 µM
solubility at 1 h ([1]; thermodynamic from solid, distilled water, sonicated 1 h at room temperature, read-out: Water solubility): 137 µg/mL
solubility at 1 h ([1]; thermodynamic from solid, distilled water, sonicated 1 h at room temperature, read-out: Water solubility (molar)): 351 µM
IC50 [7]: 198 µM
half-life at 10 mM [8, 13]: > 72 h
half-life at 10 mM ([8]; Buffer pH 9.0 (Tris-HCl)): > 72 h
half-life at 10 mM [8, 14]: > 72 h
half-life at 10 mM [8, 15]: > 72 h
half-life at 10 mM [8, 16]: > 72 h
EC50 ([9]; at 30 min): 215 µM
EC50 ([9]; at 5 h): 53.7 µM

SMILES: OC[C@H]1O[C@@H](Oc2ccc(/C=C/c3cc(O)cc(O)c3)cc2)[C@H](O)[C@@H](O)[C@@H]1O [resveratrol-4′-O-β-glucoside]
IC50 [7]: 1000 µM

Water solubility [1]: 471 µg/mL
Water solubility (molar) [1]: 1206 µM
SMILES: OC[C@H]1O[C@H](Oc2cc(O)cc(C=Cc3ccc(O)cc3)c2)[C@H](O)[C@@H](O)[C@@H]1O [R2, resveratrol-3-O-α-glucoside]

Suppression of tyrosinase activity (tyrosinase [5]; 20 μM, compared with cells treated with MSH alone): 70.5%
Amount remaining in the extracellular medium (B16F10 cells): 59 % of the initial amount
EC50 ([2]; at 30 min): 523 µM
EC50 ([2]; at 5 h): 118 µM
Water solubility [1, 11]: 36 µg/mL
solubility at 1 h ([1]; distilled water, sonicated 1 h at room temperature, read-out: Water solubility (molar)): 157.7 µM
half-life at 10 mM [8, 13]: > 72 h
half-life at 10 mM ([8]; Buffer pH 9.0 (Tris-HCl)): 1.5 h
half-life at 10 mM [8, 14]: > 72 h
half-life at 10 mM [8, 15]: 28 h
half-life at 10 mM [8, 16]: 44 h
EC50 ([9]; at 30 min): 138 µM
SMILES: Oc1ccc(/C=C/c2cc(O)cc(O)c2)cc1 [resveratrol, trans-3,5,4′-trihydroxystilbene]
Effect on growth of B16F10 cells (B16F10 melanoma cells [6]): inhibited the growth of B16F10 cells in a dose-dependent manner
Half-life (t1/2) in the reaction of polyphenol oxidases compared with piceid (polyphenol oxidases): three times shorter
Oral bioavailability [10]: less than 1%

Suppression of tyrosinase activity (tyrosinase [5]; [12]): 15.8%
inhibition at 300 µM (tyrosinase [5]; α-MSH-stimulated B16F10): 25.6%
SMILES: OC[C@H]1O[C@@H](Oc2ccc(O)cc2)[C@H](O)[C@@H](O)[C@@H]1O [arbutin]
Suppression of melanin synthesis (B16F10 melanoma cells [4]; 100 μM): 51.2%
Suppression of melanin synthesis (B16F10 melanoma cells [4]; 300 μM): 74.5%
